# Measured values from paper PMC5218480 (PLoS ONE, 2017).
# System: MV-4-11 cells
# Experiment: Gene expression microarray analysis (Affymetrix PrimeView) and GSEA
# Format: cell-based, human
# Parameters: RFU PODN (11730768_x_at) / Fold change /veh PODN (11730768_x_at) / RFU LINC00158 (11744669_a_at) / Fold change /veh LINC00158 (11744669_a_at) / RFU DUSP10 (11751237_a_at) / Fold change /veh DUSP10 (11751237_a_at) / RFU ID3 (11757404_x_at) / Fold change /veh ID3 (11757404_x_at) / RFU PLEKHG5 (11737974_s_at) / Fold change /veh PLEKHG5 (11737974_s_at) / RFU LRRC4B (11730491_at) / Fold change /veh LRRC4B (11730491_at) / RFU GIMAP4 (11747438_a_at) / Fold change /veh GIMAP4 (11747438_a_at) / RFU KRT8 (11758183_x_at) / Fold change /veh KRT8 (11758183_x_at) / RFU CNN1 (11734310_a_at) / Fold change /veh CNN1 (11734310_a_at) / RFU VPS37D (11726825_at) / Fold change /veh VPS37D (11726825_at) / RFU C10orf10 (11716522_x_at) / Fold change /veh C10orf10 (11716522_x_at) / RFU KIR2DL2 /// KIR2DL4 /// KIR2DL5A /// KIR2DL5B /// KIR2DS1 /// KIR2DS2 /// KIR2DS3 /// KIR2DS4 /// KIR3DL3 /// KIR3DL3 /// KIR3DS1 (11738374_at) / Fold change /veh KIR2DL2 /// KIR2DL4 /// KIR2DL5A /// KIR2DL5B /// KIR2DS1 /// KIR2DS2 /// KIR2DS3 /// KIR2DS4 /// KIR3DL3 /// KIR3DL3 /// KIR3DS1 (11738374_at) / RFU C1QL1 (11718748_at) / Fold change /veh C1QL1 (11718748_at) / RFU TMPRSS4 (11747572_a_at) / Fold change /veh TMPRSS4 (11747572_a_at) / RFU HAMP (11756126_x_at) / Fold change /veh HAMP (11756126_x_at) / RFU RNFT2 (11725882_a_at) / Fold change /veh RNFT2 (11725882_a_at) / RFU NR4A2 (11747474_a_at) / Fold change /veh NR4A2 (11747474_a_at) / RFU ABCC12 (11746883_a_at) / Fold change /veh ABCC12 (11746883_a_at) / RFU TMEM136 (11760407_x_at) / Fold change /veh TMEM136 (11760407_x_at) / RFU CLDN22 /// WWC2 (11732394_at) / Fold change /veh CLDN22 /// WWC2 (11732394_at) / RFU HLA-DPB1 (11760878_x_at) / Fold change /veh HLA-DPB1 (11760878_x_at) / RFU SPINT1 (11716480_a_at) / Fold change /veh SPINT1 (11716480_a_at) / RFU GAP43 (11754022_s_at) / Fold change /veh GAP43 (11754022_s_at) / RFU A4GNT (11735810_at) / Fold change /veh A4GNT (11735810_at) / RFU PRB3 (11715151_x_at) / Fold change /veh PRB3 (11715151_x_at) / RFU TUBB4B (11761932_at) / Fold change /veh TUBB4B (11761932_at) / RFU CAPN14 (11732068_a_at) / Fold change /veh CAPN14 (11732068_a_at) / RFU TMCC2 (11721928_a_at) / Fold change /veh TMCC2 (11721928_a_at) / RFU IRGQ (11745062_a_at) / Fold change /veh IRGQ (11745062_a_at) / RFU FAM174B (11720279_a_at) / Fold change /veh FAM174B (11720279_a_at) / RFU TMPRSS4 (11748680_a_at) / Fold change /veh TMPRSS4 (11748680_a_at) / RFU FAM212B (11763350_a_at) / Fold change /veh FAM212B (11763350_a_at) / RFU PLEKHG5 (11743358_a_at) / Fold change /veh PLEKHG5 (11743358_a_at) / RFU ZSCAN30 (11745921_a_at) / Fold change /veh ZSCAN30 (11745921_a_at) / RFU CMKLR1 (11741424_a_at) / Fold change /veh CMKLR1 (11741424_a_at) / RFU LOC101060620 /// MAPK8IP1 (11723275_at) / Fold change /veh LOC101060620 /// MAPK8IP1 (11723275_at) / RFU SPTSSB (11747773_x_at) / Fold change /veh SPTSSB (11747773_x_at) / RFU PRSS12 (11739890_at) / Fold change /veh PRSS12 (11739890_at) / RFU BIN1 (11741810_x_at) / Fold change /veh BIN1 (11741810_x_at) / RFU WNT11 (11732464_a_at) / Fold change /veh WNT11 (11732464_a_at) / RFU C10orf10 (11716521_a_at) / Fold change /veh C10orf10 (11716521_a_at) / RFU C5orf56 (11738089_at) / Fold change /veh C5orf56 (11738089_at) / RFU CYB561 (11721691_x_at) / Fold change /veh CYB561 (11721691_x_at) / RFU ANKRD19P (11752326_a_at) / Fold change /veh ANKRD19P (11752326_a_at) / RFU OR2T12 /// OR2T33 /// OR2T8 (11738714_s_at) / Fold change /veh OR2T12 /// OR2T33 /// OR2T8 (11738714_s_at) / RFU VCAN (11748164_a_at) / Fold change /veh VCAN (11748164_a_at) / RFU JSRP1 (11732532_at) / Fold change /veh JSRP1 (11732532_at) / RFU KRTAP10-11 (11738290_x_at) / Fold change /veh KRTAP10-11 (11738290_x_at) / RFU MYO3A (11730013_a_at) / Fold change /veh MYO3A (11730013_a_at) / RFU EBF3 (11725865_a_at) / Fold change /veh EBF3 (11725865_a_at) / RFU CAMK2N1 (11719241_x_at) / Fold change /veh CAMK2N1 (11719241_x_at) / RFU C5orf56 (11738088_a_at) / Fold change /veh C5orf56 (11738088_a_at) / RFU OLFML3 (11715873_a_at) / Fold change /veh OLFML3 (11715873_a_at) / RFU LOC100653217 /// NTM (11731650_a_at) / Fold change /veh LOC100653217 /// NTM (11731650_a_at) / RFU MAPK11 (11762145_a_at) / Fold change /veh MAPK11 (11762145_a_at) / RFU FIZ1 (11724087_x_at) / Fold change /veh FIZ1 (11724087_x_at) / RFU OASL (11726364_x_at) / Fold change /veh OASL (11726364_x_at) / RFU SOX15 (11748057_x_at) / Fold change /veh SOX15 (11748057_x_at) / RFU CD79A (11719716_a_at) / Fold change /veh CD79A (11719716_a_at) / RFU HIST1H1D (11736915_at) / Fold change /veh HIST1H1D (11736915_at) / RFU CASKIN2 (11723855_a_at) / Fold change /veh CASKIN2 (11723855_a_at) / RFU LOC730098 (11760151_x_at) / Fold change /veh LOC730098 (11760151_x_at) / RFU OR4N2 (11742367_at) / Fold change /veh OR4N2 (11742367_at) / RFU PRRT2 (11749266_a_at) / Fold change /veh PRRT2 (11749266_a_at) / RFU SNX32 (11753110_a_at) / Fold change /veh SNX32 (11753110_a_at) / RFU CDHR5 (11726645_a_at) / Fold change /veh CDHR5 (11726645_a_at) / RFU RCAN1 (11760418_a_at) / Fold change /veh RCAN1 (11760418_a_at) / RFU FAM167A (11723789_a_at) / Fold change /veh FAM167A (11723789_a_at) / RFU FAM26E (11764081_at) / Fold change /veh FAM26E (11764081_at) / RFU ISYNA1 (11749810_s_at) / Fold change /veh ISYNA1 (11749810_s_at) / RFU ACY1 (11761880_at) / Fold change /veh ACY1 (11761880_at) / RFU 11764098_at / Fold change /veh 11764098_at / RFU SAMD14 (11745864_x_at) / Fold change /veh SAMD14 (11745864_x_at) / RFU NPB (11741838_a_at) / Fold change /veh NPB (11741838_a_at) / RFU TMPRSS6 (11731388_a_at) / Fold change /veh TMPRSS6 (11731388_a_at) / RFU KRTAP10-2 (11738614_at) / Fold change /veh KRTAP10-2 (11738614_at) / RFU ARHGAP8 /// PRR5-ARHGAP8 (11727945_x_at) / Fold change /veh ARHGAP8 /// PRR5-ARHGAP8 (11727945_x_at) / RFU KRTAP5-7 /// NADSYN1 (11734609_at) / Fold change /veh KRTAP5-7 /// NADSYN1 (11734609_at) / RFU RASL12 (11751679_a_at) / Fold change /veh RASL12 (11751679_a_at) / RFU CDKN2B (11736163_a_at) / Fold change /veh CDKN2B (11736163_a_at) / RFU PRF1 (11729649_at) / Fold change /veh PRF1 (11729649_at) / RFU, ZNF638 /// ZNF638-IT1 / Fold change vs veh, ZNF638 /// ZNF638-IT1 / RFU, PANK3 / Fold change vs veh, PANK3 / RFU, SH3YL1 / Fold change vs veh, SH3YL1 / RFU, ZEB2 / Fold change vs veh, ZEB2 / RFU, NRIP1 / Fold change vs veh, NRIP1 / RFU, PTTG1IP / Fold change vs veh, PTTG1IP / RFU, CAPN2 / Fold change vs veh, CAPN2 / RFU, MED14 / Fold change vs veh, MED14 / RFU, SNORA58 / Fold change vs veh, SNORA58 / RFU, C1orf63 / Fold change vs veh, C1orf63 / RFU, LRRFIP1 / Fold change vs veh, LRRFIP1 / RFU, NDUFAF7 / Fold change vs veh, NDUFAF7 / RFU, SLC12A2 / Fold change vs veh, SLC12A2 / RFU, IBTK / Fold change vs veh, IBTK / RFU, ESF1 / Fold change vs veh, ESF1 / Fold change vs veh, TMEM50B / RFU, TAOK1 / Fold change vs veh, TAOK1 / RFU, ACBD3 / Fold change vs veh, ACBD3 / RFU, TMA16 / Fold change vs veh, TMA16 / RFU, RWDD3 / Fold change vs veh, RWDD3 / RFU, BCAT1 / Fold change vs veh, BCAT1 / RFU, EDEM3 / Fold change vs veh, EDEM3 / RFU, TMEM33 / Fold change vs veh, TMEM33 / RFU, WDR75 / Fold change vs veh, WDR75 / RFU, AHCTF1 / Fold change vs veh, AHCTF1 / RFU, TFRC / Fold change vs veh, TFRC / RFU, ZDHHC17 / Fold change vs veh, ZDHHC17 / RFU, NOM1 / Fold change vs veh, NOM1 / RFU, ARL8B / Fold change vs veh, ARL8B / RFU, ZBTB11 / Fold change vs veh, ZBTB11 / RFU, TAMM41 / Fold change vs veh, TAMM41 / RFU, KIAA1704 /// LOC100996395 / Fold change vs veh, KIAA1704 /// LOC100996395 / RFU, ING1 / Fold change vs veh, ING1 / RFU, TRMT61B / Fold change vs veh, TRMT61B / RFU, FUBP3 / Fold change vs veh, FUBP3 / RFU, TP53 / Fold change vs veh, TP53 / RFU, TNKS2 / Fold change vs veh, TNKS2 / RFU, ZFP14 / Fold change vs veh, ZFP14 / RFU, ACTR2 / Fold change vs veh, ACTR2 / RFU, PPP3R1 / Fold change vs veh, PPP3R1 / RFU, PIK3R1 / Fold change vs veh, PIK3R1 / RFU, HNRNPA1 / Fold change vs veh, HNRNPA1 / RFU, RNF170 / Fold change vs veh, RNF170 / RFU, ZNF28 / Fold change vs veh, ZNF28 / RFU, RNGTT / Fold change vs veh, RNGTT / RFU, OGT / Fold change vs veh, OGT / RFU, BRD1 / Fold change vs veh, BRD1 / RFU, MARS / Fold change vs veh, MARS / RFU, ZNF655 / Fold change vs veh, ZNF655 / RFU, FAHD1 / Fold change vs veh, FAHD1 / RFU, BDP1 / Fold change vs veh, BDP1 / RFU, LRRCC1 / Fold change vs veh, LRRCC1 / RFU, ARID1A / Fold change vs veh, ARID1A / RFU, ZNF146 / Fold change vs veh, ZNF146 / RFU, ZNF330 / Fold change vs veh, ZNF330 / RFU, GPN3 / Fold change vs veh, GPN3 / RFU, C9orf123 / Fold change vs veh, C9orf123 / RFU, N4BP2L2 / Fold change vs veh, N4BP2L2 / RFU, ARFIP1 / Fold change vs veh, ARFIP1 / RFU, FAM179B / Fold change vs veh, FAM179B / RFU, BCL10 / Fold change vs veh, BCL10 / RFU, UHRF1BP1L / Fold change vs veh, UHRF1BP1L / RFU, BET1 / Fold change vs veh, BET1 / RFU, CNOT2 / Fold change vs veh, CNOT2 / RFU, ZNF268 / Fold change vs veh, ZNF268 / Fold change vs veh, ZNF507 / RFU, DGCR2 / Fold change vs veh, DGCR2 / RFU, WDSUB1 / Fold change vs veh, WDSUB1 / Fold change vs veh, HSP90B1 /// MIR3652 / RFU, ADSS / Fold change vs veh, ADSS / RFU, GK / Fold change vs veh, GK / RFU, ZNF148 / Fold change vs veh, ZNF148 / RFU, TAF9 / Fold change vs veh, TAF9 / RFU, SLC1A5 / Fold change vs veh, SLC1A5 / RFU, SLMO2 / Fold change vs veh, SLMO2 / RFU, ABCC4 / Fold change vs veh, ABCC4 / RFU, LOC101060439 /// RAP1B / Fold change vs veh, LOC101060439 /// RAP1B / RFU, RFX7 / Fold change vs veh, RFX7 / RFU, GTPBP10 / Fold change vs veh, GTPBP10 / RFU, CNEP1R1 / Fold change vs veh, CNEP1R1 / RFU, BIVM-ERCC5 /// ERCC5 / Fold change vs veh, BIVM-ERCC5 /// ERCC5 / RFU, ILF3 / Fold change vs veh, ILF3 / RFU 11762660_at / Fold change /veh 11762660_at / RFU VCAN (11757783_s_at) / Fold change /veh VCAN (11757783_s_at) / RFU DDX43 (11728927_at) / Fold change /veh DDX43 (11728927_at) / RFU KRT8 (11758188_x_at) / Fold change /veh KRT8 (11758188_x_at) / RFU NKD1 (11759106_at) / Fold change /veh NKD1 (11759106_at) / RFU SRD5A1 (11742802_a_at) / Fold change /veh SRD5A1 (11742802_a_at) / RFU TPSAB1 /// TPSB2 (11721975_s_at) / Fold change /veh TPSAB1 /// TPSB2 (11721975_s_at) / RFU GSTM3 (11746129_a_at) / Fold change /veh GSTM3 (11746129_a_at) / RFU IL23R (11737362_x_at) / Fold change /veh IL23R (11737362_x_at) / RFU TMEM51 (11727254_a_at) / Fold change /veh TMEM51 (11727254_a_at) / RFU PIWIL2 (11732686_x_at) / Fold change /veh PIWIL2 (11732686_x_at) / RFU ORM1 (11744905_x_at) / Fold change /veh ORM1 (11744905_x_at) / RFU CCDC152 (11743942_at) / Fold change /veh CCDC152 (11743942_at) / RFU ECM1 (11717891_a_at) / Fold change /veh ECM1 (11717891_a_at) / RFU IL23R (11748794_a_at) / Fold change /veh IL23R (11748794_a_at) / RFU TNFAIP8L3 (11732012_x_at) / Fold change /veh TNFAIP8L3 (11732012_x_at) / RFU MBOAT4 (11741988_at) / Fold change /veh MBOAT4 (11741988_at) / RFU 11764193_at / Fold change /veh 11764193_at / RFU TMEM53 (11763286_at) / Fold change /veh TMEM53 (11763286_at) / RFU MAGEB2 (11727129_at) / Fold change /veh MAGEB2 (11727129_at) / RFU TMEM200A (11744735_a_at) / Fold change /veh TMEM200A (11744735_a_at) / RFU CCDC152 (11751479_a_at) / Fold change /veh CCDC152 (11751479_a_at) / RFU FAM211A (11726209_a_at) / Fold change /veh FAM211A (11726209_a_at) / RFU RGS16 (11746705_a_at) / Fold change /veh RGS16 (11746705_a_at) / RFU VCAN (11755009_s_at) / Fold change /veh VCAN (11755009_s_at) / RFU RHOB (11743442_s_at) / Fold change /veh RHOB (11743442_s_at) / RFU RGS16 (11720943_a_at) / Fold change /veh RGS16 (11720943_a_at) / RFU RGS16 (11720944_at) / Fold change /veh RGS16 (11720944_at) / RFU, VPS4B / Fold change vs veh, VPS4B / RFU, CREB1 / Fold change vs veh, CREB1 / RFU, DNAJC13 / Fold change vs veh, DNAJC13 / RFU, GNAQ / Fold change vs veh, GNAQ / RFU, CDK5R1 / Fold change vs veh, CDK5R1 / RFU, ZRANB3 / Fold change vs veh, ZRANB3 / RFU, CUL4A / Fold change vs veh, CUL4A / RFU, CCNY / Fold change vs veh, CCNY / RFU, UFL1 / Fold change vs veh, UFL1 / RFU, COG3 / Fold change vs veh, COG3 / RFU, DIAPH2 / Fold change vs veh, DIAPH2 / RFU, SKA2 / Fold change vs veh, SKA2 / RFU, AFF3 / Fold change vs veh, AFF3 / RFU, LMF1 / Fold change vs veh, LMF1 / RFU, IPO11 / Fold change vs veh, IPO11 / RFU, DFFB / Fold change vs veh, DFFB / RFU, FOXP1 / Fold change vs veh, FOXP1 / RFU, CARD8 / Fold change vs veh, CARD8 / RFU, STRN3 / Fold change vs veh, STRN3 / RFU, ADK / Fold change vs veh, ADK / RFU, RASSF2 / Fold change vs veh, RASSF2 / RFU, WIPF1 / Fold change vs veh, WIPF1 / RFU, LARP1B / Fold change vs veh, LARP1B / RFU, RASA1 / Fold change vs veh, RASA1 / RFU, RB1 / Fold change vs veh, RB1 / RFU, PPFIA1 / Fold change vs veh, PPFIA1 / RFU, MAT2A / Fold change vs veh, MAT2A / RFU, CCT5 / Fold change vs veh, CCT5 / RFU, WDR92 / Fold change vs veh, WDR92 / RFU, CUX1 / Fold change vs veh, CUX1 / RFU, TTC7A / Fold change vs veh, TTC7A / RFU, TMEM135 / Fold change vs veh, TMEM135 / RFU, DEPTOR / Fold change vs veh, DEPTOR / RFU, CPM / Fold change vs veh, CPM / RFU, DNAJB6 / Fold change vs veh, DNAJB6 / RFU, CACNA2D3 / Fold change vs veh, CACNA2D3 / RFU, DTX4 / Fold change vs veh, DTX4 / RFU, TFCP2 / Fold change vs veh, TFCP2 / RFU, GMCL1 /// GMCL1P1 / Fold change vs veh, GMCL1 /// GMCL1P1 / RFU, AEBP2 / Fold change vs veh, AEBP2 / RFU, SNHG1 /// SNORD22 /// SNORD25 /// SNORD26 /// SNORD27 /// SNORD28 /// SNORD29 /// SNORD31 / Fold change vs veh, SNHG1 /// SNORD22 /// SNORD25 /// SNORD26 /// SNORD27 /// SNORD28 /// SNORD29 /// SNORD31 / Fold change (Aza/veh), C12orf56 (ProbeSet 11735607_a_at) / Fold change (ACY-1035/veh), C12orf56 (ProbeSet 11735607_a_at) / Fold change (Aza/veh), FGFR1OP (ProbeSet 11751329_s_at) / Fold change (ACY-1035/veh), FGFR1OP (ProbeSet 11751329_s_at) / Fold change (Aza/veh), VPS36 (ProbeSet 11739960_a_at) / Fold change (ACY-1035/veh), VPS36 (ProbeSet 11739960_a_at) / RFU SYPL1 (11715823_x_at) / Fold change /veh SYPL1 (11715823_x_at) / RFU IGFBP7 (11715501_s_at) / Fold change /veh IGFBP7 (11715501_s_at) / RFU REEP3 (11722064_at) / Fold change /veh REEP3 (11722064_at) / RFU IGLL1 (11728026_x_at) / Fold change /veh IGLL1 (11728026_x_at): dose or concentration left out as unconfirmed
# Conditions: ProbeSet 11762504_a_at; LIST D
structure (smiles),measurement,value
Nc1ncn([C@@H]2O[C@H](CO)[C@@H](O)[C@H]2O)c(=O)n1 [azacitidine],"RFU, ZRANB3",79.10 RFU
